Measured values taken from patent US20130283404A1, “EPIGENETICS IN AUTOIMMUNITY” (The Regents of the University of Michigan, priority 2012, published 2013).

Experiments:
Format in all cases: cell-based, human
X chromosome MicroRNA = test: Genome-wide qPCR miRNA expression profiling of 5-azaC treated CD4+ T cells; conditions: 72 hrs; for LET-7f-2 Fold change (5AzaC/No 5Aza): table line 4
Experimental: (§1) For in vitro demethylation assay, isolated CD4+ cells were cultured with 5 μM 5-AzaC for 72 hours. The cells were then treated (restimulated) or not with 5 ng/ml PMA and 500 ng/ml ionomycin or not for an additional 6 hr, and CD4+ cells were recovered and washed 2 times with PBS. Total RNA including miRNAs was isolated using miRNeasy kit (Qiagen) for miRNA and mRNA expression analysis. Genomic DNA was isolated using Qiagen DNeasy Blood & Tissue Kit. (Hewagama, 2009; Lu, 2007; Quddus, 1993; herein incorporated by reference in their entireties).
Genome-wide qPCR miRNA expression profiling was performed using (System Biosciences (SBI), Cat# RA660A-1) profiler. Briefly, 800 ng totals RNA containing miRNA was converted to complementary DNA with the QuantiMir kit, according to the manufacturer protocol. Real time PCR in 384 well format using miRNA-specific primers was performed using ABI 7900 real-time PCR system at University of Michigan microarray or sequencing core facilities. Resulting data was analyzed by using Human miRNome profiler software provided by SBI.
To identify methylation sensitive […], miRNA expression profiles were compared between 5-AzaC treated CD4+ cells and non-treated controls from healthy men and women. Differentially expressed miRNAs were identified. Then the X chromosome encoded miRNA's increased by 5-azaC in women, compared to men were identified.
Experiments were conducted during the development of embodiments of the present invention to identify X-linked miRNA's increasing more in experimentally demethylated T cells from women than men and also overexpressed in women relative to men with active lupus. The human X chromosome encodes 128 miRNA while the Y chromosome encodes only 15 (Ensembl release 65—December 2011 © WTSI/EBI WTSI/EBI). PBMC from the peripheral blood of healthy men and healthy women ages 23-35 were stimulated with PHA and treated with 5-azaC as before. 72 hrs later CD4+ T cells were purified and miRNA's surveyed using PCR arrays detecting 80 X chromosome and 824 autosomal miRNAs but no Y miRNA's.

OGT [1] = test: OGT mRNA by RT-PCR in 5-azaC treated CD4+ T cells; conditions: 72 hours, restimulated with PMA and ionomycin, more in women than in men
Experimental: as §1
(§2) Up to 1000 ng total RNA from CD4+ T cells was transcribed into cDNA using Transcriptor First Strand cDNA synthesis kit (Roche) according to the manufacture's instruction. The cDNA was then subjected to real-time PCR using a Rotor-Gene 3000 thermocycler (Corbett). Roche (Basle) FastStart universal SYBR green master (Roche) mix containing 1 μl template cDNA and 0.5 μM forward and reverse primers in a total volume of 20 μl was annealed at 56° C. for a total of 40 cycles. The fold change of expression was calculated using ACTB and 18sRNA as internal reference genes.
(§3) The sex-specific differences in gene expression were confirmed in experimentally demethylated CD4+ T cells from an additional 9 pairs of healthy men and women. […] CD4+ T cells were then purified using magnetic beads, RNA isolated, and OGT and CXCR3 mRNA levels quantitated by RT-PCR. […]

CXCR3 [2] = test: CXCR3 mRNA by RT-PCR in 5-azaC treated CD4+ T cells; conditions: 72 hours, restimulated with PMA and ionomycin, more in women than in men
Experimental: as §1, §2, §3

OGT [3] = test: OGT protein by immunoblotting in 5-azaC treated CD4+ T cells; conditions: CD4+ T cells from women but not men, 72 h
Experimental: (§4) CD4 ? T cell CXCR3 levels were measured by flow cytometry using antibodies from Santa Cruz Biotechnology. OGT was measured by solubilizing bead-purified CD4 ? T cells, fractionating the lysates by electrophoresis, transferring the proteins to nitrocellulose membranes, then probing with anti-OGT antibodies (Abcam). CBL protein levels were measured by immunoblotting with anti-CBL antibody (BD Biosciences) and approaches similar to OGT. Protein bands were visualized using an ECL chemiluminescence detection system, then scanned and quantified with ImageQuant 5.2 software. Values were normalized to b-actin and levels expressed relative to non-stimulated CD4 ? T cells. (Basu, 2009; Lu, 2007, Gorelik, 2012; herein incorporated by reference in their entireties).
PBMC from N healthy men and women were stimulated with PHA, treated with 5-azaC, and 72 hours later restimulated with PMA and ionomycin as for an additional 6 hours as before. CD4+ T cells were isolated and OGT levels compared by immunoblotting.

CXCR3 [4] = test: CXCR3 protein by immunoblotting and flow cytometry on 5-azaC treated CD4+ T cells; conditions: for CXCR3 MFI: mean±SEM
Experimental: as §4
CXCR3 protein levels were similarly compared on 5-azaC treated CD4+ T cells with and without restimulation using immunoblotting and flow cytometry. In contrast to OGT, using untreated and 5-azaC treated CD4+ T cells from male-female pairs, no increase in CXCR3 protein was observed (CXCR3MFI: female 320+91, male 316+108, mean±SEM) despite the increase in CXCR3 mRNA in the women.

OGT regulatory elements = test: Methylcytosine affinity purification (MeCAP) of OGT regulatory region in CD4+ T cells; conditions: CD4+ T cells from women but not men
Experimental: (§5) Genomic DNA from isolated CD4+ T cells (˜3×10^6), was extracted using Qiagen DNeasy Blood & Tissue Kit. 3-5 μg isolated DNA was sonicated to average of ˜500 bp with a Covaris DNA shearing system at UM sequencing core. Fragments were size-evaluated using an Agilent 2100 Bioanalyzer. Approximately 400 ng sonicated DNA was subjected to MeCAP experiments using Active Motif METHYLCOLLECTOR Ultra Kit according to the manufacturer's instructions. DNA fragments from the methylation-enriched fraction were purified using QIAquick PCR Purification Kit (Qiagen). MeCAP enriched and reference input samples were quantitated using quantitative real time PCR(RT-qPCR) with primers designed for specific regions flanking the putative transcription start site of the gene promoters. Differentially methylated regions between patient and normal healthy controls were identified by comparing % enrichment (relative to input) of the 500 bp window of methylated fragments.
(§6) The overexpression of OGT and CXCR3 in 5-azaC treated CD4+ T cells from women relative to men is consistent with demethylation of regulatory regions on their silenced X chromosome. […]

[5] = system: CXCR3 regulatory elements; test: Methylcytosine affinity purification (MeCAP) of CXCR3 regulatory region in CD4+ T cells; conditions: CD4+ T cells from women
Experimental: as §5, §6

[6] = system: miR-98/Let 7-f2 gene cluster; test: Methylation of regulatory regions 5' to the miR-98/Let 7-f2 gene cluster in CD4+ T cells; conditions: T cells from women but not men
Experimental: as §5
Methylation of potential regulatory regions 5′ to the miR-98/Let 7-f2 gene cluster was compared in experimentally demethylated CD4 ? T cells from women relative to men, and in CD4 ? T cells from women with active lupus.

Nc1ncn([C@@H]2O[C@H](CO)[C@@H](O)[C@H]2O)c(=O)n1 [5-azaC]
MIR-98 Fold change (5AzaC/No 5Aza) (X chromosome MicroRNA; Female CD4+ T cells): 1.7 ± 0.2
MIR-106a Fold change (5AzaC/No 5Aza) (X chromosome MicroRNA; Female CD4+ T cells): 5.2 ± 1.5
MIR-188(3p) Fold change (5AzaC/No 5Aza) (X chromosome MicroRNA; Female CD4+ T cells): 12.7 ± 3.0
MIR-421 Fold change (5AzaC/No 5Aza) (X chromosome MicroRNA; Female CD4+ T cells): 17.4 ± 5.0
MIR-424 Fold change (5AzaC/No 5Aza) (X chromosome MicroRNA; Female CD4+ T cells): 2.2 ± 0.5
MIR-450a Fold change (5AzaC/No 5Aza) (X chromosome MicroRNA; Female CD4+ T cells): 2.4 ± 0.7
MIR-450b Fold change (5AzaC/No 5Aza) (X chromosome MicroRNA; Female CD4+ T cells): 14.3 ± 4.4
MIR-503 Fold change (5AzaC/No 5Aza) (X chromosome MicroRNA; Female CD4+ T cells): 14.3 ± 4.4
MIR-508(3p) Fold change (5AzaC/No 5Aza) (X chromosome MicroRNA; Female CD4+ T cells): 4.2 ± 1.1
LET-7f-2 Fold change (5AzaC/No 5Aza) (X chromosome MicroRNA; Female CD4+ T cells): 3.8 ± 1.2
MIR-98 Fold change (5AzaC/No 5Aza) (X chromosome MicroRNA; Male CD4+ T cells): 1.4 ± 0.2
MIR-106a Fold change (5AzaC/No 5Aza) (X chromosome MicroRNA; Male CD4+ T cells): 1.1 ± 0.4
MIR-188(3p) Fold change (5AzaC/No 5Aza) (X chromosome MicroRNA; Male CD4+ T cells): 4.1 ± 2.1
MIR-421 Fold change (5AzaC/No 5Aza) (X chromosome MicroRNA; Male CD4+ T cells): 7.8 ± 3.7
MIR-424 Fold change (5AzaC/No 5Aza) (X chromosome MicroRNA; Male CD4+ T cells): 1.1 ± 0.3
MIR-450a Fold change (5AzaC/No 5Aza) (X chromosome MicroRNA; Male CD4+ T cells): 1.1 ± 0.8
MIR-450b Fold change (5AzaC/No 5Aza) (X chromosome MicroRNA; Male CD4+ T cells): 3.8 ± 1.8
MIR-503 Fold change (5AzaC/No 5Aza) (X chromosome MicroRNA; Male CD4+ T cells): 3.8 ± 1.8
MIR-508(3p) Fold change (5AzaC/No 5Aza) (X chromosome MicroRNA; Male CD4+ T cells): 1.1 ± 1.3
LET-7f-2 Fold change (5AzaC/No 5Aza) (X chromosome MicroRNA; Male CD4+ T cells): 0.5 ± 0.2
OGT transcripts (OGT [1]): increases
CXCR3 transcripts (CXCR3 [2]): increases
OGT protein (OGT [3]): increases
CXCR3 MFI (CXCR3 [4]; female CD4+ T cells): 320+91
CXCR3 MFI (CXCR3 [4]; male CD4+ T cells): 316+108
CXCR3 protein (CXCR3 [4]; untreated and 5-azaC treated CD4+ T cells from male-female pairs): no increase
methylation of region −412 to −88 5′ to OGT transcription start site (OGT regulatory elements): significant demethylation
methylation of region −1567 to −1067 5′ to the CXCR3 transcription start site [5]: significant decrease
methylation of regulatory regions 5′ to the miR-98/Let 7-f2 gene cluster [6]: significantly demethylates
